Test results: ChEMBL document CHEMBL5352486, “Design, synthesis, in vitro - In vivo biological evaluation of novel thiazolopyrimidine compounds as antileishmanial agent with PTR1 inhibition” (Eur J Med Chem, 2023)
≈ marks a conversion by molar mass, not a printed value.

How the values were obtained:
Leishmania tropica [1] = assay: Antileishmanial activity against Leishmania tropica MHOM/A7/1974/SAF-K27 incubated for 48 hrs by Neubauer hemocytometer analysis; format: functional, organism-based; settings: MHOM/A7/1974/SAF-K27, 48 h
Leishmania infantum [2] = assay: Antileishmanial activity against Leishmania infantum MHOM/TN/1980/IPT1 incubated for 48 hrs by Neubauer hemocytometer analysis; format: functional, organism-based; settings: MHOM/TN/1980/IPT1, 48 h
Leishmania tropica [3] = assay: Antileishmanial activity against Leishmania tropica MHOM/A7/1974/SAF-K27 incubated for 48 hrs by XTT method; format: functional, organism-based; settings: MHOM/A7/1974/SAF-K27, 48 h
Leishmania infantum [4] = assay: Antileishmanial activity against Leishmania infantum MHOM/TN/1980/IPT1 incubated for 48 hrs by XTT method; format: functional, organism-based; settings: MHOM/TN/1980/IPT1, 48 h
Pteridine reductase 1 = molecular target: T1, Pteridine reductase 1 (Leishmania major, UniProt Q01782); assay: Inhibition of recombinant Leishmania major PTR1 expressed in Escherichia coli BL21 using folic acid as substrate in presence of NADPH
T1 sequence (Q01782 whole entry): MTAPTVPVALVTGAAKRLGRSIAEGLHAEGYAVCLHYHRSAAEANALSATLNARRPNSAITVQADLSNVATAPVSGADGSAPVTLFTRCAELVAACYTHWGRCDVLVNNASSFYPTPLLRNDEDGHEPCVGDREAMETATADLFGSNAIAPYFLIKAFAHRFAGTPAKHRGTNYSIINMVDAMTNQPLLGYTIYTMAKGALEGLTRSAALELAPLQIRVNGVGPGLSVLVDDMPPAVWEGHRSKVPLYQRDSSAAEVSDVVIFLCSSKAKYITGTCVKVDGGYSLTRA

[5] = system: DHFR (human) versus PTR1 (Leishmania major); assay: Selectivity index, ratio of IC50 for human DHFR to IC50 for Leishmania major PTR1; format: toxicity; settings: human DHFR enzyme and Leishmania major PTR1 enzyme, read-out: Ratio IC50
[6] = (§1) Cytotoxicity against mouse L929 cells by alamar blue method; format: toxicity, cell-based; settings: mouse, L929 cells
L929 = assay: as §1; format: toxicity, cell-based; settings: l929
[7] = (§2) Cytotoxicity against mouse RAW264.7 cells by alamar blue method; format: toxicity, cell-based; settings: mouse, RAW264.7 cells
RAW264.7 = assay: as §2; format: toxicity, cell-based; settings: raw264.7

CCOC(=O)N1CCN(c2ncc3nc(NC(=O)c4ccc(Cl)cc4Cl)sc3n2)CC1
IC50 (Leishmania tropica [1]): > 300 µg/mL | IC50 (Leishmania infantum [2]): > 300 µg/mL | IC50 (Leishmania tropica [3]): > 300 µg/mL | IC50 (Leishmania infantum [4]): > 300 µg/mL

O=C(Nc1nc2cnc(N3CCCC3)nc2s1)c1ccc(Cl)c(Cl)c1
IC50 (Leishmania tropica [1]): > 300 µg/mL | IC50 (Leishmania infantum [2]): > 300 µg/mL | IC50 (Leishmania tropica [3]): > 300 µg/mL | IC50 (Leishmania infantum [4]): > 300 µg/mL

CCOC(=O)N1CCN(c2ncc3nc(NC(=O)c4ccc(Cl)cc4)sc3n2)CC1
IC50 (Leishmania tropica [1]): 53.9 µg/mL (≈ 121 µM) | IC50 (Leishmania infantum [2]): 52.4 µg/mL (≈ 117 µM) | IC50 (Leishmania tropica [3]): 54.1 µg/mL (≈ 121 µM) | IC50 (Leishmania infantum [4]): 53.5 µg/mL (≈ 120 µM)

CN(C)c1ncc2nc(NC(=O)c3ccc(Cl)c(Cl)c3)sc2n1
IC50 (Leishmania tropica [1]): 116 µg/mL (≈ 315 µM) | IC50 (Leishmania infantum [2]): 112 µg/mL (≈ 304 µM) | IC50 (Leishmania tropica [3]): 119 µg/mL (≈ 322 µM) | IC50 (Leishmania infantum [4]): 114 µg/mL (≈ 310 µM)

O=C(Nc1nc2cnc(N3CCCCC3)nc2s1)c1ccc(Cl)cc1Cl
IC50 (Leishmania tropica [1]): 16.3 µg/mL (≈ 39.9 µM) | IC50 (Leishmania infantum [2]): 16.8 µg/mL (≈ 41.1 µM) | IC50 (Leishmania tropica [3]): 16.3 µg/mL (≈ 39.8 µM) | IC50 (Leishmania infantum [4]): 16.8 µg/mL (≈ 41.1 µM)

O=C(Nc1nc2cnc(N3CCCC3)nc2s1)c1ccc(Cl)cc1
IC50 (Leishmania tropica [1]): 137 µg/mL (≈ 380 µM) | IC50 (Leishmania infantum [2]): 114 µg/mL (≈ 315 µM) | IC50 (Leishmania tropica [3]): 141 µg/mL (≈ 392 µM) | IC50 (Leishmania infantum [4]): 117 µg/mL (≈ 326 µM)

CN(C)c1ncc2nc(NC(=O)c3ccc(Cl)cc3Cl)sc2n1
IC50 (Leishmania tropica [1]): 86.6 µg/mL (≈ 235 µM) | IC50 (Leishmania infantum [2]): 84.1 µg/mL (≈ 228 µM) | IC50 (Leishmania tropica [3]): 86.2 µg/mL (≈ 234 µM) | IC50 (Leishmania infantum [4]): 81.1 µg/mL (≈ 220 µM)

CCN(CC)c1ncc2nc(NC(=O)c3ccc(Cl)c([N+](=O)[O-])c3)sc2n1
IC50 (Leishmania tropica [1]): 15.8 µg/mL (≈ 38.7 µM) | IC50 (Leishmania infantum [2]): 15.1 µg/mL (≈ 37.2 µM) | IC50 (Leishmania tropica [3]): 15.6 µg/mL (≈ 38.2 µM) | IC50 (Leishmania infantum [4]): 15.3 µg/mL (≈ 37.6 µM) | IC50 (Pteridine reductase 1): 254 µM | selectivity ratio [5]: 12.6 | IC50 [6]: 19.1 µg/mL (≈ 46.8 µM) | log10 IC50 (µg/mL) (L929): 1.28 | IC50 [7]: 4.47 µg/mL (≈ 11 µM) | log10 IC50 (µg/mL) (RAW264.7): 0.65

O=C(Nc1nc2cnc(N3CCCCC3)nc2s1)c1ccc(Cl)c(Cl)c1
IC50 (Leishmania tropica [1]): 25.1 µg/mL (≈ 61.6 µM) | IC50 (Leishmania infantum [2]): 25.7 µg/mL (≈ 63 µM) | IC50 (Leishmania tropica [3]): 25.5 µg/mL (≈ 62.4 µM) | IC50 (Leishmania infantum [4]): 25.8 µg/mL (≈ 63.2 µM)

O=C(Nc1nc2cnc(N3CCCCC3)nc2s1)c1ccc(Cl)c([N+](=O)[O-])c1
IC50 (Leishmania tropica [1]): 56.8 µg/mL (≈ 136 µM) | IC50 (Leishmania infantum [2]): 64 µg/mL (≈ 153 µM) | IC50 (Leishmania tropica [3]): 56.7 µg/mL (≈ 135 µM) | IC50 (Leishmania infantum [4]): 63.5 µg/mL (≈ 152 µM)

CCN(CC)c1ncc2nc(NC(=O)c3ccc(Cl)cc3)sc2n1
IC50 (Leishmania tropica [1]): 186 µg/mL (≈ 515 µM) | IC50 (Leishmania infantum [2]): 191 µg/mL (≈ 528 µM) | IC50 (Leishmania tropica [3]): 188 µg/mL (≈ 520 µM) | IC50 (Leishmania infantum [4]): 189 µg/mL (≈ 523 µM)

CC(=O)N1CCN(c2ncc3nc(NC(=O)c4ccc(Cl)c(Cl)c4)sc3n2)CC1
IC50 (Leishmania tropica [1]): 147 µg/mL (≈ 326 µM) | IC50 (Leishmania infantum [2]): 126 µg/mL (≈ 279 µM) | IC50 (Leishmania tropica [3]): 149 µg/mL (≈ 331 µM) | IC50 (Leishmania infantum [4]): 127 µg/mL (≈ 282 µM)

O=C(Nc1nc2cnc(N3CCCC3)nc2s1)c1ccc(Cl)cc1Cl
IC50 (Leishmania tropica [1]): 51.2 µg/mL (≈ 130 µM) | IC50 (Leishmania infantum [2]): 52.4 µg/mL (≈ 133 µM) | IC50 (Leishmania tropica [3]): 52 µg/mL (≈ 132 µM) | IC50 (Leishmania infantum [4]): 52.6 µg/mL (≈ 133 µM)

O=C(Nc1nc2cnc(N3CCOCC3)nc2s1)c1ccc(Cl)c(Cl)c1
IC50 (Leishmania tropica [1]): 40.3 µg/mL (≈ 98.2 µM) | IC50 (Leishmania infantum [2]): 44.1 µg/mL (≈ 108 µM) | IC50 (Leishmania tropica [3]): 41.4 µg/mL (≈ 101 µM) | IC50 (Leishmania infantum [4]): 44.6 µg/mL (≈ 109 µM)

CCN(CC)c1ncc2nc(NC(=O)c3ccc(Cl)cc3Cl)sc2n1
IC50 (Leishmania tropica [1]): 120 µg/mL (≈ 303 µM) | IC50 (Leishmania infantum [2]): 123 µg/mL (≈ 310 µM) | IC50 (Leishmania tropica [3]): 125 µg/mL (≈ 315 µM) | IC50 (Leishmania infantum [4]): 124 µg/mL (≈ 312 µM)

O=C(Nc1nc2cnc(N3CCOCC3)nc2s1)c1ccc(Cl)cc1
IC50 (Leishmania tropica [1]): > 300 µg/mL | IC50 (Leishmania infantum [2]): > 300 µg/mL | IC50 (Leishmania tropica [3]): > 300 µg/mL | IC50 (Leishmania infantum [4]): > 300 µg/mL

O=C(Nc1nc2cnc(N3CCCCC3)nc2s1)c1ccc(Cl)cc1
IC50 (Leishmania tropica [1]): 116 µg/mL (≈ 310 µM) | IC50 (Leishmania infantum [2]): 119 µg/mL (≈ 317 µM) | IC50 (Leishmania tropica [3]): 122 µg/mL (≈ 327 µM) | IC50 (Leishmania infantum [4]): 121 µg/mL (≈ 324 µM)

O=C(Nc1nc2cnc(N3CCOCC3)nc2s1)c1ccc(Cl)cc1Cl
IC50 (Leishmania tropica [1]): 90.3 µg/mL (≈ 220 µM) | IC50 (Leishmania infantum [2]): 91.1 µg/mL (≈ 222 µM) | IC50 (Leishmania tropica [3]): 90.6 µg/mL (≈ 221 µM) | IC50 (Leishmania infantum [4]): 90.9 µg/mL (≈ 222 µM)

CN1CCN(c2ncc3nc(NC(=O)c4ccc(Cl)c([N+](=O)[O-])c4)sc3n2)CC1
IC50 (Leishmania tropica [1]): 51.5 µg/mL (≈ 119 µM) | IC50 (Leishmania infantum [2]): 58.8 µg/mL (≈ 135 µM) | IC50 (Leishmania tropica [3]): 53.8 µg/mL (≈ 124 µM) | IC50 (Leishmania infantum [4]): 60.4 µg/mL (≈ 139 µM)

O=C(Nc1nc2cnc(Cl)nc2s1)c1ccc(Cl)c(Cl)c1
IC50 (Leishmania tropica [1]): 14.8 µg/mL (≈ 41.1 µM) | IC50 (Leishmania infantum [2]): 14.1 µg/mL (≈ 39.3 µM) | IC50 (Leishmania tropica [3]): 15.1 µg/mL (≈ 41.9 µM) | IC50 (Leishmania infantum [4]): 14.4 µg/mL (≈ 40 µM)

CC(=O)N1CCN(c2ncc3nc(NC(=O)c4ccc(Cl)cc4Cl)sc3n2)CC1
IC50 (Leishmania tropica [1]): 75 µg/mL (≈ 166 µM) | IC50 (Leishmania infantum [2]): 77.7 µg/mL (≈ 172 µM) | IC50 (Leishmania tropica [3]): 75.8 µg/mL (≈ 168 µM) | IC50 (Leishmania infantum [4]): 78.6 µg/mL (≈ 174 µM)

O=C(Nc1nc2cnc(Cl)nc2s1)c1ccc(Cl)c([N+](=O)[O-])c1
IC50 (Leishmania tropica [1]): 30.6 µg/mL (≈ 82.7 µM) | IC50 (Leishmania infantum [2]): 30.5 µg/mL (≈ 82.4 µM) | IC50 (Leishmania tropica [3]): 30.7 µg/mL (≈ 82.9 µM) | IC50 (Leishmania infantum [4]): 30.6 µg/mL (≈ 82.6 µM)

CC(=O)N1CCN(c2ncc3nc(NC(=O)c4ccc(Cl)cc4)sc3n2)CC1
IC50 (Leishmania tropica [1]): > 300 µg/mL | IC50 (Leishmania infantum [2]): > 300 µg/mL | IC50 (Leishmania tropica [3]): > 300 µg/mL | IC50 (Leishmania infantum [4]): > 300 µg/mL

CN(C)c1ncc2nc(NC(=O)c3ccc(Cl)cc3)sc2n1
IC50 (Leishmania tropica [1]): > 300 µg/mL | IC50 (Leishmania infantum [2]): > 300 µg/mL | IC50 (Leishmania tropica [3]): > 300 µg/mL | IC50 (Leishmania infantum [4]): > 300 µg/mL

CC(=O)N1CCN(c2ncc3nc(NC(=O)c4ccc(Cl)c([N+](=O)[O-])c4)sc3n2)CC1
IC50 (Leishmania tropica [1]): 34.4 µg/mL (≈ 74.4 µM) | IC50 (Leishmania infantum [2]): 35.5 µg/mL (≈ 76.8 µM) | IC50 (Leishmania tropica [3]): 35.3 µg/mL (≈ 76.3 µM) | IC50 (Leishmania infantum [4]): 36.1 µg/mL (≈ 78.1 µM)
